Tests used:
Assay in all cases: relative viability (nuclei count vs DMSO), 5 days (fraction); higher = more cells survive
[1] = compound: CC(C)CCN1c2nc(Nc3cc(F)c(O)c(F)c3)ncc2N(C)C(=O)C1C [BI-D1870] + COc1cc2c(Oc3ccc(NC(=O)C4(C(=O)Nc5ccc(F)cc5)CC4)cc3F)ccnc2cc1OCCCN1CCOCC1 [Foretinib] (partner 0.25 µM)
Procedure, shortened: (§1)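 Lung cancer cell lines, seeded in 1536-well plates, were treated the following day by pin tool with a single drug or with five library-drug doses (not always all listed) in √10 steps on top of a fixed anchor-drug dose. Cells were fixed and nuclei stained in one step after 5 days, and nuclei were counted. Relative viability is the nuclei count for treated wells divided by that for vehicle wells, reported as medians of duplicate plates.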

[2] = compound: CC(C)CCN1c2nc(Nc3cc(F)c(O)c(F)c3)ncc2N(C)C(=O)C1C [BI-D1870] + C[C@@H](Oc1cc(-c2cnn(C3CCNCC3)c2)cnc1N)c1c(Cl)ccc(F)c1Cl [Crizotinib] (partner 1 µM)
Procedure, shortened: as §1

[3] = compound: CC(C)CCN1c2nc(Nc3cc(F)c(O)c(F)c3)ncc2N(C)C(=O)C1C [BI-D1870] + C[C@]1(O)C[C@@H](c2nc(-c3ccc4ccc(-c5ccccc5)nc4c3)c3c(N)nccn32)C1 [Linsitinib] (partner 1 µM)
Procedure, shortened: as §1

[4] = compound: O=c1ncccn1[C@@H]1O[C@H](CO)[C@@H](O)[C@H]1O [Zebularine] + CS(=O)(=O)N1CCN(Cc2cc3nc(-c4cccc5[nH]ncc45)nc(N4CCOCC4)c3s2)CC1 [Pictilisib] (partner 1 µM)
Procedure, shortened: as §1

Cell Line | relative viability ([1]; first compound 0.04 µM) | relative viability ([1]; first compound 0.1265 µM) | relative viability ([1]; first compound 0.4 µM) | relative viability ([1]; first compound 1.265 µM) | relative viability ([1]; first compound 4 µM) | relative viability ([2]; first compound 0.04 µM) | relative viability ([2]; first compound 0.1265 µM) | relative viability ([2]; first compound 0.4 µM) | relative viability ([2]; first compound 1.265 µM) | relative viability ([2]; first compound 4 µM) | relative viability ([3]; first compound 0.04 µM) | relative viability ([3]; first compound 0.1265 µM) | relative viability ([3]; first compound 0.4 µM) | relative viability ([3]; first compound 1.265 µM) | relative viability ([3]; first compound 4 µM) | relative viability ([4]; first compound 1 µM) | relative viability ([4]; first compound 3.162 µM) | relative viability ([4]; first compound 10 µM) | relative viability ([4]; first compound 31.62 µM) | relative viability ([4]; first compound 100 µM)
NCI-H2342 | 1.04 | 1 | 1.11 | 1.18 | 1.23 |  |  |  |  |  |  |  |  |  |  |  |  |  |  | 
HCC-15 | 1.11 | 0.911 | 1 | 0.921 | 0.599 | 0.919 | 0.733 | 0.74 | 0.81 | 0.594 | 0.89 | 0.751 | 0.772 | 0.92 | 0.713 | 0.826 | 0.424 | 0.536 | 0.666 | 0.249
A-427 | 1.14 | 0.895 | 0.991 | 1.11 | 1.13 | 0.992 | 0.86 | 0.825 | 1.11 | 0.857 | 1.14 | 1.1 | 1.13 | 1.17 | 1.17 | 0.835 | 0.783 | 0.686 | 0.433 | 0.191
NCI-H2228 | 1.03 | 0.806 | 0.941 | 0.821 | 0.647 | 0.645 | 0.479 | 0.374 | 0.435 | 0.329 | 0.78 | 0.568 | 0.953 | 0.529 | 0.388 | 0.563 | 0.416 | 0.228 | 0.329 | 0.251
NCI-H1734 | 0.881 | 0.827 | 0.883 | 0.936 | 0.837 | 0.806 | 0.618 | 0.593 | 0.664 | 0.645 | 0.967 | 0.816 | 0.875 | 0.935 | 0.788 | 0.505 | 0.385 | 0.341 | 0.333 | 0.303
PC-14 | 0.936 | 0.865 | 0.908 | 0.952 | 0.945 | 1.03 | 0.909 | 0.797 | 0.923 | 0.768 | 1.04 | 0.919 | 0.908 | 0.91 | 0.633 | 0.767 | 0.574 | 0.151 | 0.111 | 0.0955
NCI-H1915 | 1.12 | 1.01 | 1.08 | 1.06 | 0.99 | 0.932 | 0.835 | 0.962 | 0.935 | 0.881 | 1.1 | 1.12 | 1.1 | 1.12 | 1.05 | 1.07 | 0.887 | 0.774 | 1.02 | 0.907
NCI-H1666 | 1.1 | 0.936 | 0.952 | 1.07 | 0.963 | 0.932 | 0.813 | 1.1 | 1.04 | 0.803 | 0.921 | 0.814 | 0.865 | 0.843 | 0.872 | 0.472 | 0.477 | 0.383 | 0.506 | 0.311
